# Active and inactive are the calls of the source. No cut-off for these calls is given here.
# Tests used:
# [1] = molecular target: T1, Metabotropic glutamate receptor 5 (Homo sapiens, UniProt P41594); test: Agonist activity at human mGluR5A transfected in HEK293 cells assessed as induction of calcium release by FLIPR assay; type: functional, cell-based
# Target sequence in this assay (P41594 whole entry): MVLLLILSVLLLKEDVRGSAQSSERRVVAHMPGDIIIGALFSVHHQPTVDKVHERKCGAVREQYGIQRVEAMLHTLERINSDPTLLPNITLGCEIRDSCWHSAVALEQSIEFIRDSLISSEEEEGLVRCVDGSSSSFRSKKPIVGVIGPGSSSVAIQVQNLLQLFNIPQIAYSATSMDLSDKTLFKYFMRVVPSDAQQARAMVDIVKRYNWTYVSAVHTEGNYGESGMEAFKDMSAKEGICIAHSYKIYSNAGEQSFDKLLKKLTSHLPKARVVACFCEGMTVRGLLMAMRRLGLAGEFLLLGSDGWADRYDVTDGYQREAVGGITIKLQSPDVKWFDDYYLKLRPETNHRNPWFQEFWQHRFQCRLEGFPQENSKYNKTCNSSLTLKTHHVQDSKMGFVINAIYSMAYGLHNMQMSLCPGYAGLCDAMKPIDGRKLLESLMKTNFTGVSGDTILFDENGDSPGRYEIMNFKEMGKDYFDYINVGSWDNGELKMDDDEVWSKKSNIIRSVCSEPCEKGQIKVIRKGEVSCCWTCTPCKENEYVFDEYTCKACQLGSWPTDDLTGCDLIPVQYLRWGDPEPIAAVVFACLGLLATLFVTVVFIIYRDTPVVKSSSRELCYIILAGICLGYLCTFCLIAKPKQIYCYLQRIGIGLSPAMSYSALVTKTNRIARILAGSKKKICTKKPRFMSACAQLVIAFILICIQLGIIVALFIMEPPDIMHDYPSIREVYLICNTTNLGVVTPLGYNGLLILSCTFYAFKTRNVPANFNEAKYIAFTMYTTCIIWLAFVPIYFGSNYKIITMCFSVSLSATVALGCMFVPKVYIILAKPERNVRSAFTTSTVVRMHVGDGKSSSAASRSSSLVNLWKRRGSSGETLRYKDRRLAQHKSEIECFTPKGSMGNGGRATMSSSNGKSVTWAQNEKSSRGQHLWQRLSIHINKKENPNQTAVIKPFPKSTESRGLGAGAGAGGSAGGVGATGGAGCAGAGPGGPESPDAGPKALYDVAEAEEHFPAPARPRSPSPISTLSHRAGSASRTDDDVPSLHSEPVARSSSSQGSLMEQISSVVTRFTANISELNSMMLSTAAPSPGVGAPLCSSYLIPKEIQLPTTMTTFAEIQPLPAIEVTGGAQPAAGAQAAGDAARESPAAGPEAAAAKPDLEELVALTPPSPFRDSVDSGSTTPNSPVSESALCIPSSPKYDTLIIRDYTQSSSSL
# [2] = molecular target: T1, Metabotropic glutamate receptor 5; test: Negative allosteric modulation of human mGluR5A transfected in HEK293 cells assessed as inhibition of L-glutamate-induced calcium release after 10 mins by FLIPR assay; type: functional, cell-based
# Target sequence in this assay (P41594 whole entry): as above
# [3] = molecular target: T1, Metabotropic glutamate receptor 5; test: Positive allosteric modulation of human mGluR5A transfected in HEK293 cells assessed as potentiation of L-glutamate-induced calcium release incubated for 10 mins by FLIPR assay; type: functional, cell-based
# Target sequence in this assay (P41594 whole entry): as above
# [4] = molecular target: T1, Metabotropic glutamate receptor 5; test: Displacement of [3H]-MPEPy from human mGluR5A transfected in HEK293 cell membranes after 60 mins by microbeta liquid scintillation counting analysis
# Target sequence in this assay (P41594 whole entry): as above
# [5] = Toxicity in C57BL/6 mouse assessed as induction of convulsions at 3 mg/kg, ip during 3 hrs study; type: organism-based; conditions: in vivo
# [6] = molecular target: T1, Metabotropic glutamate receptor 5; test: Displacement of [3H]-MPEP from human mGluR5A transfected in HEK293 cells after 60 mins by microbeta liquid scintillation counting analysis; type: cell-based
# Target sequence in this assay (P41594 whole entry): as above
# [7] = molecular target: T1, Metabotropic glutamate receptor 5; test: Antagonist activity against human mGluR5A transfected in HEK293 cells assessed as inhibition of L-glutamate-induced calcium release up to 3 uM after 10 mins by FLIPR assay; type: functional, cell-based
# Target sequence in this assay (P41594 21-1212 limits assumed): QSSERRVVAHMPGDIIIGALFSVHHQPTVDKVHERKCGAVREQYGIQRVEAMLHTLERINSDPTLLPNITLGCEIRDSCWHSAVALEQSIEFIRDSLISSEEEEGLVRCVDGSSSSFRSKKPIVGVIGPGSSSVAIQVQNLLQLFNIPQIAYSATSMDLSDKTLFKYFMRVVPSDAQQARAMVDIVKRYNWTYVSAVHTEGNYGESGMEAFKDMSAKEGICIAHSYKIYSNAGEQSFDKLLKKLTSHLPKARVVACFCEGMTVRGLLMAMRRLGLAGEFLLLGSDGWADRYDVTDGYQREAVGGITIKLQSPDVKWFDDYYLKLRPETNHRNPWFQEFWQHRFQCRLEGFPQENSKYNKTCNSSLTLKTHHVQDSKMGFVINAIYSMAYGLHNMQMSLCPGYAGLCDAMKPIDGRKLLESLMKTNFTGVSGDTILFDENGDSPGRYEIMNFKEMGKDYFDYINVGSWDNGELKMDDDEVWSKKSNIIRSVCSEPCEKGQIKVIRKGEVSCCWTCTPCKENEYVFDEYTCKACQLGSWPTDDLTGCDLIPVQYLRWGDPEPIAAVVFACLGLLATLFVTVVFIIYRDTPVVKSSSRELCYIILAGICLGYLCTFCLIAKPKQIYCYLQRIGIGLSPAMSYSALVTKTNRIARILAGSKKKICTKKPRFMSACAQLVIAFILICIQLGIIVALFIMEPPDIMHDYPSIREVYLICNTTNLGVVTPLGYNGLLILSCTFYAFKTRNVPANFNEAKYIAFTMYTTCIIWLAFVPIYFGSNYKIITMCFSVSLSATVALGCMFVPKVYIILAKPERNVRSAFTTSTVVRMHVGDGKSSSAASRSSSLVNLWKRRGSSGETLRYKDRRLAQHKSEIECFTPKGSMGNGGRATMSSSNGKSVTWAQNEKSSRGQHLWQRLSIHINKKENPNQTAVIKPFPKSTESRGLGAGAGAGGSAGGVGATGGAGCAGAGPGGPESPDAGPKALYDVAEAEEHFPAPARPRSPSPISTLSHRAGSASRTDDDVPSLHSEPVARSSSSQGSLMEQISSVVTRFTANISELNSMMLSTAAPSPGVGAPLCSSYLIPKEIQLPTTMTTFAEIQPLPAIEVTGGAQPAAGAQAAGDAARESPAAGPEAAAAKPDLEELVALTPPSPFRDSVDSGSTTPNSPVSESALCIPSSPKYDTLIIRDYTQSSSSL
# [8] = Fraction unbound in rat serum; type: ADME, cell-free
# [9] = molecular target: T1, Metabotropic glutamate receptor 5; test: Agonist activity at human mGluR5A transfected in HEK293 cells assessed as induction of calcium release up to 3 uM by FLIPR assay; type: functional, cell-based
# Target sequence in this assay (P41594 21-1212 limits assumed): as above
# [10] = Fraction unbound in mouse serum; type: ADME, cell-free
# [11] = Fraction unbound in human serum; type: ADME, cell-free
# [12] = Toxicity in C57BL/6 mouse assessed as induction of convulsions at 30 mg/kg, ip during 3 hrs study; type: organism-based; conditions: in vivo
# [13] = Drug uptake in C57BL/6 mouse brain at 1 mg/kg, sc measured after 60 mins; type: ADME, organism-based; conditions: read-out: Drug uptake
# [14] = Drug uptake in C57BL/6 mouse brain at 3 mg/kg, sc measured after 60 mins; type: ADME, organism-based; conditions: read-out: Drug uptake
# [15] = Metabolic stability in human liver microsomes assessed as compound remaining after 10 mins; type: ADME, Microsome; conditions: read-out: Stability
# [16] = Ratio of drug uptake in C57BL/6 mouse brain to plasma at 1 mg/kg, sc measured after 60 mins; type: ADME, organism-based; conditions: read-out: BPR
# [17] = Metabolic stability in rat liver microsomes assessed as compound remaining after 10 mins; type: ADME, Microsome; conditions: read-out: Stability
# Mus musculus [18] = test: Cognitive enhancing effect in sc dosed C57BL/6 mouse assessed as time spent on exploring novel objects administered 1 hr before acquisition session followed by acquisition session for 15 mins by novel object recognition test; type: functional; conditions: C57BL/6, sc, read-out: MED
# [19] = Ratio of drug uptake in C57BL/6 mouse brain to plasma at 10 mg/kg, sc measured after 60 mins; type: ADME, organism-based; conditions: read-out: BPR
# [20] = Ratio of drug uptake in C57BL/6 mouse brain to plasma at 3 mg/kg, sc measured after 60 mins; type: ADME, organism-based; conditions: read-out: BPR
# [21] = Drug uptake in C57BL/6 mouse plasma at 10 mg/kg, sc measured after 60 mins; type: ADME, organism-based
# [22] = Drug uptake in C57BL/6 mouse plasma at 3 mg/kg, sc measured after 60 mins; type: ADME, organism-based
# [23] = Drug uptake in C57BL/6 mouse plasma at 1 mg/kg, sc measured after 60 mins; type: ADME, organism-based
# [24] = Metabolic stability in mouse liver microsomes assessed as compound remaining after 10 mins; type: ADME, Microsome; conditions: read-out: Stability
# [25] = Drug uptake in C57BL/6 mouse brain at 10 mg/kg, sc measured after 60 mins; type: ADME, organism-based; conditions: read-out: Drug uptake
# Mus musculus [26] = test: Ex vivo receptor occupancy at mGluR5A in C57BL/6 mouse at 10 and 30 mg/kg; type: functional, organism-based
# [27] = Toxicity in C57BL/6 mouse assessed as induction of convulsions at 1 mg/kg, ip during 3 hrs study; type: organism-based; conditions: in vivo
# [28] = Toxicity in C57BL/6 mouse assessed as induction of convulsions at 10 mg/kg, ip coadministered with (4R,5R)-5-phenyl-4-(4-(phenylethynyl)pyridin-2-yl)oxazolidin-2-one during 3 hrs study; type: organism-based; conditions: in vivo
# [29] = Toxicity in C57BL/6 mouse assessed as induction of convulsions at 10 mg/kg, ip during 3 hrs study; type: organism-based; conditions: in vivo
Compound,EC50 [1] [nM],EC50 [3] [nM],Ki [4] [nM],fraction unbound [10],fraction unbound [11],remaining at 10 min [15] [%],remaining at 10 min [17] [%],further results
O=C1N[C@H](c2cncc(C#Cc3ccccc3)c2)[C@@H](c2cccc(F)c2)O1,,,,,,,,Activity [5]: Toxic
O=C1N[C@H](c2cncc(C#Cc3ncccc3F)c2)[C@@H](c2ccc(F)cc2)O1,> 3000,10,14,0.13,0.076,100,100,Activity [12]: Non-Toxic; concentration at 1 h [13]: 56 nM; concentration at 1 h [14]: 182 nM; Kp at 1 h [16]: 0.15; minimal effective dose (Mus musculus [18]): 10 mg/kg; Kp at 1 h [19]: 0.1 to 0.11; Kp at 1 h [20]: 0.14; concentration at 1 h [21]: 5250 nM; concentration at 1 h [22]: 1430 nM; concentration at 1 h [23]: 375 nM; remaining at 10 min [24]: 100%; concentration at 1 h [25]: 542 nM
O=C1N[C@H](c2ccnc(C#Cc3ccccc3)c2)[C@@H](c2ccccc2)O1,,1.5,2.1,0.021,0.005,,,inhibition [7]: inactive; fraction unbound [8]: 0.012; Activity [9]: inactive
O=C1N[C@H](c2cncc(C#Cc3ccccc3)c2)[C@@H](c2cc(F)ccc2F)O1,,,,,,,,Activity [12]: Non-Toxic; Activity (Mus musculus [26]): Active
O=C1N[C@H](c2cncc(C#Cc3ccccn3)c2)[C@@H](c2ccc(F)cc2)O1,> 3000,25,23,0.069,0.064,97,100,remaining at 10 min [24]: 89%
O=C1N[C@H](c2cncc(C#Cc3cccnc3)c2)[C@@H](c2ccc(F)cc2)O1,273,3.3,32,0.11,0.082,76,85,remaining at 10 min [24]: 87%
O=C1N[C@H](c2cncc(C#Cc3ccncc3)c2)[C@@H](c2ccc(F)cc2)O1,> 3000,14,16,0.1,0.14,70,65,remaining at 10 min [24]: 69%
O=C1N[C@H](c2cccc(C#Cc3ccccc3)n2)[C@@H](c2ccccc2)O1,,9.4,44,0.011,0.009,,,Activity [12]: Non-Toxic; inhibition [7]: inactive; fraction unbound [8]: 0.009; Activity [9]: inactive
O=C1N[C@H](c2cncc(C#Cc3cncc(F)c3)c2)[C@@H](c2ccc(F)cc2)O1,315,,,,0.035,97,85,Activity [28]: Non-Toxic; remaining at 10 min [24]: 77%; Activity [29]: Toxic
O=C1N[C@H](c2cncc(C#Cc3ccnc(F)c3)c2)[C@@H](c2ccc(F)cc2)O1,> 3000,4.8,15,0.11,0.034,92,100,Activity [29]: Toxic

# More lines, main results first:
EC50 [1] [nM],EC50 [3] [nM],Ki [4] [nM],fraction unbound [10],fraction unbound [11],remaining at 10 min [15] [%],remaining at 10 min [17] [%],Compound,further results
> 3000,> 3000,2.7,,,,,O=C1N[C@H](c2cncc(C#Cc3ccccc3)c2)[C@@H](c2c(F)cccc2F)O1,IC50 [2]: 27 nM
,38,,0.001,< 0.001,,,O=C1N[C@H](c2cccc(C#Cc3ccccc3)c2)[C@@H](c2ccccc2)O1,Ki [6]: 8.9 nM; inhibition [7]: inactive; fraction unbound [8]: 0.001; Activity [9]: inactive
> 3000,5.5,1.4,,,,,O=C1N[C@H](c2cncc(C#Cc3ccccc3)c2)[C@@H](c2cc(F)cc(F)c2)O1,
50,0.2,2.8,,,,,O=C1N[C@H](c2cncc(C#Cc3ccccc3)c2)[C@@H](c2ccc(F)c(F)c2)O1,
> 3000,0.9,1.8,,,,,O=C1N[C@H](c2cncc(C#Cc3ccccc3)c2)[C@@H](c2cccc(Cl)c2)O1,
> 3000,0.7,1.4,0.047,0.008,,,O=C1N[C@H](c2cncc(C#Cc3ccccc3)c2)[C@@H](c2ccccc2)O1,Activity [12]: Non-Toxic; inhibition [7]: inactive; fraction unbound [8]: 0.007; Activity [9]: inactive
,,,0.01,0.006,,,O=C1N[C@H](c2cc(C#Cc3ccccc3)ccn2)[C@@H](c2ccccc2)O1,inhibition [7]: inactive; fraction unbound [8]: 0.009; Activity [9]: inactive
> 3000,1.5,1.9,,,,,O=C1N[C@H](c2cncc(C#Cc3ccccc3)c2)[C@@H](c2ccccc2F)O1,
504,0.4,1.7,0.009,0.004,81,92,O=C1N[C@H](c2cncc(C#Cc3ccccc3)c2)[C@@H](c2ccc(F)cc2)O1,Activity [27]: Toxic; remaining at 10 min [24]: 80%
> 3000,> 3000,,,,,,O=C1N[C@H](c2cncc(C#Cc3ccccc3)c2)[C@@H](c2ccccc2Cl)O1 [BMS-984923],
333,0.6,2.2,,,,,O=C1N[C@H](c2cncc(C#Cc3ccccc3)c2)[C@@H](c2ccc(Cl)cc2)O1,
> 3000,4.2,1.8,,,,,O=C1N[C@H](c2cncc(C#Cc3ccccc3)c2)[C@@H](c2cccc(F)c2F)O1,
> 3000,1.2,1.4,,,,,O=C1N[C@H](c2cncc(C#Cc3ccccc3)c2)[C@@H](c2ccc(F)cc2F)O1,Activity [5]: Toxic

# From ChEMBL document CHEMBL4477253, “Oxazolidinone-based allosteric modulators of mGluR5: Defining molecular switches to create a pharmacological tool box” (Bioorg Med Chem Lett, 2016)
